Values quoted from earlier work in patent publication US4127522A, “Novel triacontapeptides, intermediates therefor and pharmaceutical compositions and methods employing said triacontapeptides” (priority 1977, dated 1978).

Key:
[1] = test system: opiate activity
[2] = injected directly into the brain of the rat; Belluzzi et al.
[3] = test system: partially purified brain opiate receptor sites; details: natural peptide; Bradbury et al.

In the case of “H-Tyr-Gly-Gly-Phe-Met-OH [methionine enkephalin]”, the “activity in bioassays for opiate activity” value [1] is given as “very active”, the analgesic activity [2] is given as “only weak analgesic agent of short duration” and the “binding to partially purified brain opiate receptor sites” value [3] is given as “binds stereo-specifically”.
